# Assays:
# Assay in all cases: Bacterial viability of biofilm after VNB cluster disruption and tobramycin treatment
# Type in all cases: cell-based
# [1] = tested on: Pseudomonas aeruginosa LESB58 biofilms
# Description: (§1) In the study, the synergistic effect of vapour nanobubble mediated cluster disruption and antibiotic treatment was evaluated for 3 types of bacteria. As gram-negatives, Burkholderia multivorans LMG18825 and Pseudomonas aeruginosa LESB58 were selected. Staphylococcus aureus Mu50, often implicated in skin and soft tissue infections, was chosen as a challenging representative of gram-positive bacteria. AuNPs were evaluated for achieving efficient loading and disruption of biofilm clusters. […] The Bacteria are stained with SYTO59 and the gold particles were detected by reflection of the laser light.
# (§2) In further experiments, the synergistic effect of VNB biofilm cluster disruption with relevant antibiotics or disinfectants is evaluated. The biofilm first received a laser treatment for cluster disruption, followed by treatment with tobramycin. Proper controls were taken into account: untreated control, only AuNPs, only laser treatment, VNBs only, AuNPs with tobramycin. Each location in the biofilm received a single 7 ns pulse of 561 nm laser light (2.8 J/cm2) followed by Tobramycin treatment at 32 μg/mL, 16 μg/mL and 1024 μg/mL for Burkholderia multivorans, Pseudomonas aeruginosa and Staphylococcus aureus biofilms, respectively. […]
# In another experiment, the effect of applying different laser pulses on the biofilm was evaluated. […]
# [2] = tested on: Burkholderia multivorans LMG18825 biofilms; details: 70 nm AuNPs + single 7 ns pulse of 561 nm laser (2.8 J/cm2), then tobramycin 32 μg/mL for 24 hours at 37° C.; vs tobramycin alone
# Description: as §1
# as §2, with “respectively. The bacterial viability following vapour nanobubble generation and antibiotic treatment is shown in FIG. 5 The different experiments are as follows:” for “respectively.”
# [3] = tested on: Staphylococcus aureus Mu50 biofilms; details: 70 nm AuNPs + single 7 ns pulse of 561 nm laser (2.8 J/cm2), then tobramycin 1024 μg/mL for 24 hours at 37° C.
# Description: as §1
# as §2, with “respectively. The bacterial viability following vapour nanobubble generation and antibiotic treatment is shown in FIG. 5 The different experiments are as follows:” for “respectively.”
smiles,measurement,setting,value
NC[C@H]1O[C@H](O[C@H]2[C@H](O)[C@@H](O[C@H]3O[C@H](CO)[C@@H](O)[C@H](N)[C@H]3O)[C@H](N)C[C@@H]2N)[C@H](N)C[C@@H]1O [tobramycin],CFU decrease in comparison with treatment with tobramycin alone,"[1]; 10 laser pulses of 7 ns of 561 nm (2.8 J/cm2) per location (10× VNB formation), then tobramycin for 24 hours at 37° C.",~4000 times
same,CFU decrease of combined VNB-tobramycin treatment as compared to tobramycin alone,"[1]; 70 nm AuNPs + single 7 ns pulse of 561 nm laser (2.8 J/cm2), then tobramycin 16 μg/mL for 24 hours at 37° C.",~20 times
same,increased eradication potency of tobramycin by use of VNBs,[2],~50 times
same,CFU decrease of combined VNB-tobramycin treatment as compared to tobramycin alone,[3],~10 times
